Data: patent US6982285B2, “Control of parasites attached to skin of fish” (Novartis Animal Health US, Inc., priority 1999, dated 2006)

Assays:
sea lice = details: in salt water (printed for trichlorfon); cited from earlier work
salmon louse [1] = experiment: Semi-automated in vivo test for activity against the salmon louse (needleless inoculation gun); design: species or system salmon louse on Atlantic salmon; details: Atlantic salmon artificially infected with 5 pre-adult, 5 adult female and 5 adult male salmon lice; 45 mg fluazuron/kg body weight, needleless inoculation gun below dorsal fin; after 24 hours
Source text: 2. Semi-Automated In Vivo Test for Activity Against the Salmon Louse.
Two well-aerated seawater aquariums, each of 5000 liter content, are set up parallel to one another at a distance of 2 m, with one being 10 cm higher than the other. The upper aquarium is provided with a kind of overflow which opens into a plexiglass channel which is open at the top and has a square inner cross-section of 10 cm. The upper end of this channel is secured by a movable grid and rests on the edge of the lower aquarium. Between the two aquariums, there is slight gradient. In the middle of the channel, two wire grids are attached with a 30 cm gap across the current, in such a way that they are either used as a water-permeable barrier or can be opened upwards on a hinge by a lever. At the bottom of the upper aquarium, there is an electrically controlled tail lift. When this is raised, the volume of water above it is diminished by reducing the depth of water. In addition, the upper aquarium contains a water feed which is secured by a grid and the lower aquarium has outlet holes. Water flows constantly from the upper to the lower aquarium. 200 Atlantic salmon of the same age are introduced into the upper aquarium and are each artificially infected with 5 pre-adult, 5 adult female and 5 adult male salmon lice. […]

salmon louse [2] = experiment: In vivo preliminary test for activity against the salmon louse following manual injection; design: species or system salmon louse on Atlantic salmon; details: naturally infected Atlantic salmon; single dose 40 mg fluazuron/kg body weight injected by hand into muscle tissue below dorsal fin; inspected 24, 48 and 72 hours later; at latest after 72 hours
Protocol: 1. In Vivo Preliminary Test for Activity Against the Salmon Louse Following Manual […]
20 naturally infected Atlantic salmon of various sizes from a fish farm are transferred to a well-aerated seawater aquarium for acclimatisation. They are left there for 3 days and fed daily with the usual food. On the fourth day, they are caught individually with a fish basket and quickly weighed. Each fish is injected by hand using an injection needle with a single dose, according to formulation example 1, of 40 mg fluazuron/kg body weight into the muscle tissue below the dorsal fin. The treated fish are returned to their aquarium.

Compound | concentration required / effective against sea lice (sea lice) [ppm] | parasite infestation / number of surviving parasites (salmon louse [1]) | parasite infestation / number of surviving parasites (salmon louse [2])
COP(=O)(OC)OC=C(Cl)Cl [dichlorvos, 2,2-dichloroethenyl-dimethylphosphate] | ≥ 1 | – | –
O=C(NC(=O)c1c(F)cccc1F)Nc1ccc(Cl)c(Oc2ncc(C(F)(F)F)cc2Cl)c1 [fluazuron, 1-[4-chloro-3-(3-chloro-5-trifluoromethyl-2-pyridyloxy)phenyl]-3-(2,6-difluorobenzoyl)urea] | – | all the female and male adults and pre-adult stages have been killed | all the adult and pre-adult stages have been killed
COP(=O)(OC)C(O)C(Cl)(Cl)Cl (stereo not shown) [trichlorfon, dimethyl-2,2,2-trichloro-1-hydroxyethyl-phosphonate] | 300 | – | –
